Source: patent US20020054872A1, “Peptides for the treatment of systemic lupus erythematosus and methods of treating systemic lupus erythematosus” (priority 1997, published 2002)
Residues, ends and D or L forms follow the SMILES beside them.

Columns and labels:
[1] = test system: B3 human anti-DNA antibody; experiment: Direct binding ELISA of B3 to laminin peptides; conditions: direct binding ELISA test after two (2) hours
Method: (§1) The C72 murine anti-DNA antibody has been derived from (NZB×NZW)F1 lupus mice by the hybridoma technique as described in Eilat D. et al J. Immunol. […] The monoclonal anti-DNA antibodies DIL6 and B3 were derived from lupus patients by hybridoma technique as described in Ehrenstein M. R. et al J. Clin. Invest. (1994) 93 1787-1799 and Ehrenstein M. R. et al Kidney Inter. (1995) 48 705-711.
(§2) Wells were coated with 10 μg/ml of the peptides, blocked with 1% BSA (bovine serum albumin) in PBS (pH 7,4), reacted with appropriately diluted serum or urine samples or monoclonal antibodies, incubated with anti-human or anti-mouse immunoglobulin enzyme conjugated to alkaline phosphatase and detected by addition of substrate (Sigma 100 Phosphatase Substrate Tablets) and color development using an Organon Teknika Microwell System spectrometer at wavelength of 405 nm.
The human monoclonal anti-DNA antibodies DIL 6 and B3 were derived from lupus patients by the hybridoma technique. […] In FIGS. 3 and 4, the peptides are referred to as denoted above or as follows; AS30 is R27, AS19 is R35 AS35 is R26, AS17 is R28 and AS6 is R18.
(§3) The peptides of the present invention were tested for their ability to bind directly with C72 murine anti-DNA antibodies and B3 human anti-DNA antibodies according to the method described hereinabove.

[2] = molecular target: C72 anti-DNA antibody; experiment: Competitive inhibition of C72 binding to R38 (5100); parameters: species or system mouse; conditions: concentration of competitive inhibitor, ELISA
Description: A competitive inhibition study compared how each of the peptides competes with R38 (5100) for binding to the C72 anti-DNA antibody. Conducted according to the methods described hereinabove, the results of the study are disclosed in Table 4 below and are further elucidated by reference to FIG. 10.

[3] = test system: C72 murine anti-DNA antibody; experiment: Direct binding ELISA of C72 to laminin peptides; parameters: species or system mouse; conditions: direct binding ELISA test after one (1) hour
Method: as §1, §2
The interaction of the C72 murine anti-DNA antibody with laminin peptides was analyzed by ELISA as described above. The C72 conditioned medium was diluted in PBS in various dilutions.
as §3

Compound: CC[C@H](C)[C@H](NC(=O)[C@H](CC(N)=O)NC(=O)[C@@H](NC(=O)[C@H](CC(=O)O)NC(=O)[C@H](CO)NC(=O)[C@H](CCC(N)=O)NC(=O)[C@@H](NC(=O)[C@H](CCCCN)NC(=O)[C@H](Cc1ccc(O)cc1)NC(=O)CNC(=O)[C@H](CCC(=O)O)NC(=O)[C@@H](N)CCCCN)C(C)C)C(C)C)C(=O)N[C@H](C(=O)N[C@@H](CC(C)C)C(=O)N[C@@H](CCC(=O)O)C(=O)N[C@@H](Cc1ccccc1)C(=O)N[C@@H](CCCNC(=N)N)C(=O)N[C@H](C(=O)N[C@@H](CO)C(=O)N[C@@H](CO)C(=O)N[C@@H](CCC(N)=O)C(=O)O)[C@@H](C)O)[C@@H](C)O [Peptide 5300] (H-KEGYKVQSDVNITLEFRTSSQ-OH; N-terminus and C-terminus assumed)
- B3 Binding [1]: 0.03 O.D.
- 50% Inhibition of C72 binding to mouse R38 (5100) [2]: 85 µg/mL
- C72 Binding [3]: 0.03 O.D.
